Results as given in patent publication US12344644B2, “Amelioration and treatment of infarction damage with a polypeptide segement of BNIP3” (priority 2021, dated 2025).

Assays:
[1] = tested on: wild-type mice; test: DOX treatment in vivo: cardiac injury markers (cTnI, CK, LDH, BNP); parameters: species or system mouse; settings: DOX alone or with coadministration of PepB
[2] = tested on: wild-type mice; test: DOX treatment in vivo: serial echocardiography; settings: DOX alone or in combination with PepB
Description: Next, we explored the effect of DOX treatment on cardiac function assessed with echocardiographic measurements at three time points (TO, T1 16 days, T2 42 days) (FIG. 19).

[3] = tested on: human cardiomyocytes (HCM); test: DOX induced mPTP opening in human cardiomyocytes (Calcein-AM); settings: 10 μM DOX alone or with peptide co-administered
[4] = tested on: human cardiomyocytes (HCM); test: DOX induced mitochondrial ROS generation in human cardiomyocytes; settings: 10 μM DOX alone or with peptide co-administered; four and 22 hours
[5] = tested on: human cardiomyocytes (HCM); test: DOX induced mitochondrial calcium ion overload in human cardiomyocytes; settings: 10 μM DOX alone or with peptide co-administered; four hours
[6] = tested on: mitochondria; test: DOX treatment in vivo: mitochondrial OCR (Seahorse mitochondrial stress test)
[7] = tested on: autophagic flux; test: DOX treatment in vivo: autophagic flux (LC3, p62, BNIP3 western blot, chloroquine); settings: DOX alone or with PepB
[8] = tested on: human cardiomyocytes (HCM); test: DOX induced mitochondrial membrane potential destabilization in human cardiomyocytes; settings: 10 μM DOX alone or with peptide co-administered; four and 22 hours
[9] = tested on: wild-type mice subjected to myocardial I/R; test: In vivo murine myocardial I/R: infarct size per area at risk (Evans blue/TTC); parameters: species or system mouse; settings: 30 min ischemia, 24 hours reperfusion
[10] = tested on: BNIP3; test: Mitochondrial BNIP3 level in the AAR after I/R (immunoblot); type: in vivo, mouse; settings: 10 minutes reperfusion
[11] = tested on: caspase-3; test: Caspase-3 activity in the AAR after I/R; type: in vivo, mouse; settings: 1 hour reperfusion
[12] = molecular target: T1, recombinant BNIP3 (Mus musculus, UniProt O55003); test: BNIP3/peptide microarray (truncation, alanine scan, substitution analysis); type: binding; settings: alanine scan and substitution analyses of BNIP3 1-20
T1 construct: purchased Cusabio (obtained via Hölzel Diagnostika, Cologne, Germany) CSB-CF002766Mo-50
T1 sequence (O55003 whole entry, the tested form may be a part): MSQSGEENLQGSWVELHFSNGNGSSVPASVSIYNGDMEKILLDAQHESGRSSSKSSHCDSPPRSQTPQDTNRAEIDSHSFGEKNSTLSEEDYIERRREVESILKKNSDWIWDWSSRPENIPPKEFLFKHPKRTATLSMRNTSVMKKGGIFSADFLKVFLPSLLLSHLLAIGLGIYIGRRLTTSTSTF

Compound: COc1cccc2c1C(=O)c1c(O)c3c(c(O)c1C2=O)C[C@@](O)(C(=O)CO)C[C@@H]3O[C@H]1C[C@H](N)[C@H](O)[C@H](C)O1 [DOX, doxorubicin]
- cardiomyocyte death, cardiac troponin I (cTnl) levels [1]: high cardiac troponin I (cTnl) levels
- heart rate [2]: unaffected
- mPTP opening [3]: activated
- mitochondrial ROS generation [4]: triggered
- mitochondrial calcium ion overload [5]: induced
- basal respiration ([6]; DOX alone or with PepB): affected
- maximal respiration ([6]; DOX alone or with PepB): affected
- respiratory reserve capacity (OCR) ([6]; DOX alone or with PepB): inhibited
- Complex II-stimulated respiration ([6]; DOX alone or with PepB co-treatment): inhibition
- BNIP3 accumulation [7]: triggered p62 and BNIP3 accumulation
- p62 accumulation [7]: triggered p62 and BNIP3 accumulation
- mitochondrial membrane potential [8]: disrupted

Compound: GRKKRRQRRRPQLDAQHESGRSSSKSSHCDSP [TATBNIP3-20C, control peptide: HIV-1 PTD and 20 amino acids derived from BNIP3 42-61]
- infarct size compared with vehicle treatment ([9]; injected 5 minutes before reperfusion): no difference

Compound: GRKKRRQRRRPQMSQSGEENLQGSWVELHFSN [TAT-BNIP3-20A, HIV-1 PTD and 20 amino acids derived from BNIP3 1-20]
- reduction in infarct size relative to treatment with vehicle ([9]; peptide injected 5 minutes before reperfusion): 41%
- BNIP3 translocation to the mitochondria [10]: prevented BNIP3 translocation
- caspase-3 activity [11]: markedly reduced caspase-3 activity

Compound: VELHFSN
- BNIP3 binding (microarray signal) [12]: substantially higher luminescence
